Patent US9452155B2, “Injectable antibiotic formulations and their methods of use” (BAYER NEW ZEALAND LTD, priority 2012, dated 2016)
One block for each compound: values may come before it.

Key:
[1] = format: physicochemical
Description: Thus the long term stability of PNT with triacetin (or other oily vehicles) is highly unexpected. […] After one month in accelerated stability the components of the composition appeared to degrade rapidly with a resulting colour change from an off-white to a dark yellow with dark brown sludge forming. The degradation components appeared to include a gas, resulting in the container swelling from the resultant pressure. Accordingly, the formulations described in CN 1517090 are not known to be storage stable.

[2] = 20° C.; cited from earlier work
[3] = cited from earlier work

chemical stability on storage in oily vehicles [1]: chemically unstable
chemical stability when substituted for penethamate in the preferred formulation [1]: chemically unstable
SMILES: CC1(C)S[C@@H]2[C@H](NC(=O)Cc3ccccc3)C(=O)N2[C@H]1C(=O)O.CCN(CC)CCOC(=O)c1ccc(N)cc1 [procaine penicillin]

chemical stability on storage in oily vehicles [1]: chemically unstable
SMILES: CC1(C)S[C@@H]2[C@H](NC(=O)Cc3ccccc3)C(=O)N2[C@H]1C(=O)O [benzylpenicillin]

SMILES: CC(=O)OCC(COC(C)=O)OC(C)=O [Triacetin]
viscosity [2]: approximately 23 mPas

SMILES: CCN(CC)CCOC(=O)[C@@H]1N2C(=O)[C@@H](NC(=O)Cc3ccccc3)[C@H]2SC1(C)C.I [penethamate hydroiodide]
time to peak serum levels (measured as dissociated penicillin G) ([3]; after injection (Friton 2003)): 3.76 h
share of the active drug present in its hydrolysed form (benzylpenicillin) at equilibrium ([3]; blood pH (7.2), after intramuscular administration): 91.8%
